Experimental data reported in patent US10131664B2 (Celgene Quanticel Research, Inc., priority 2013, dated 2018).
Structures can show the parent of a compound that is named as a salt. Where two headings read alike, the source gives them in different places.

Key:
THP-1 (AML) cells = assay: LSD1 CD11b cellular assay (flow cytometry); assay type: cell-based; conditions: Homo sapiens, read-out: Cellular IC50
Description: To analyze LSD1 inhibitor efficacy in cells, a CD11b flow cytometry assay was performed. LSD1 inhibition induces CD11b expression in THP-1 (AML) cells which can be measured by flow cytometry. […] LSD1 test compounds were serially diluted in DMSO. The dilutions were added to each well accordingly to a final concentration of 0.2% DMSO. The cells were incubated at 37° C. in 5% CO2 for 4 days. 250 μL of each well was transferred to a well in a 96 well round bottom plate. The plate was centrifuged at 1200 rpm at 4 degrees Celsius in a Beckman Coulter Alegra 6KR centrifuge for 5 min. The media was removed leaving the cells at the bottom of the wells. The cells were washed in 100 μL cold HBSS (Hank's Balanced Salt Solution) plus 2% BSA (Bovine Serum Albumin) solution and centrifuged at 1200 rpm at 4° C. for 5 min. The wash was removed. […] The cells were centrifuged and washed two times in 100 μl HBSS plus 2% BSA. After the final spin the cells were resuspended in 100 μL HBSS plus 2% BSA containing 1 μg/mL DAPI (4′,6-diamidino-2-phenylindole). The cells were then analyzed by flow cytometry in a BD FACSAria machine. Cells were analyzed for CD11b expression. The percent of CD11b expressing cells for each inhibitor concentration was used to determine an IC50 curve for each compound analyzed.

full-length human LSD1 = full-length human LSD1 (Homo sapiens (Human), UniProt O60341); assay: In vitro enzyme inhibition assay LSD-1 (TR-FRET); assay type: biochemical; conditions: TR-FRET, 0.1 nM LSD1, 50 nM H3K4me1-biotin peptide, 2 μM FAD, pH7.3; read-out: LSD1 IC50
Description: This assay determines the ability of a test compound to inhibit LSD1 demethylase activity.
The enzymatic assay of LSD1 activity is based on Time Resolved-Fluorescence Resonance Energy Transfer (TR-FRET) detection.
The ability of the compounds disclosed herein to inhibit LSD1 activity was quantified and the respective IC50 value was determined. Table 5 provides the IC50 values of various substituted heterocyclic compounds disclosed herein.

[1] = 96 h, CD11b expression in THP-1 (AML) cells, flow cytometry, 4 days incubation

| Compound | IC50 (THP-1 (AML) cells; [1]) | IC50 (full-length human LSD1) | IC50 (THP-1 (AML) cells; THP-1, 96 h) |
| --- | --- | --- | --- |
| Cc1ccc(-c2nc3ccn(C[C@H]4CNCCO4)c3cc2-c2ccc(C#N)cc2)cc1 [Example 10, 4-[5-(4-methylphenyl)-1-[[(2R)-morpholin-2-yl]methyl]pyrrolo[3,2-b]pyridin-6-yl]benzonitrile] | 1000 to 10000 nM | < 100 nM |  |
| N#Cc1ccc(-c2cc3c(ccn3C[C@H]3CNCCO3)nc2-c2ccc(F)cc2)cc1 [Example 11, 4-[5-(4-fluorophenyl)-1-[[(2R)-morpholin-2-yl]methyl]pyrrolo[3,2-b]pyridin-6-yl]benzonitrile] | 1000 to 10000 nM | < 100 nM |  |
| Cc1ccc(-c2nc3ccn(CCCN)c3cc2-c2ccc(C#N)cc2)cc1 [Example 12] | 100 to 1000 nM | < 100 nM |  |
| Cc1ccc(-c2nc3cnn(CC4CCNCC4)c3cc2-c2ccc(C#N)cc2)cc1 [Example 14] | < 100 nM | < 100 nM |  |
| Cc1ccc(-c2nc3cnn(C[C@H]4[C@@H]5CNC[C@@H]54)c3cc2-c2ccc(C#N)cc2)cc1 [Example 15, 4-[1-[[(1S,5R)-3-azabicyclo[3.1.0]hexan-6-yl]methyl]-5-(4-methylphenyl)pyrazolo[4,3-b]pyridin-6-yl]benzonitrile] | < 100 nM | < 100 nM |  |
| Cc1ccc(-c2cnc(NC[C@H]3CCNC3)nc2-c2ccc(C#N)cc2)cc1 [Example 16, 4-[5-(4-methylphenyl)-2-{[(3S)-pyrrolidin-3-ylmethyl]amino}pyrimidin-4-yl]benzonitrile] | < 100 nM | < 100 nM |  |
| Cc1ccc(-c2cnc(N3CC[C@@H]4CNC[C@@H]4CC3)nc2-c2ccc(C#N)cc2)cc1 [Example 23, 4-{2-[(3aR,8aS)-decahydropyrro[3,4-d]azepin-6-yl]-5-(4-methylphenyl)pyrimidin-4-yl}benzonitrile] | < 100 nM | < 100 nM |  |
| N#Cc1ccc(-c2nc(NC[C@H]3CCNC3)ncc2-c2ccc(C(F)(F)F)cc2)cc1 [Example 25, 4-(2-{[(3S)-pyrrolidin-3-ylmethyl]amino}-5-[4-(trifluoromethyl)phenyl]pyrimidin-4-yl)benzonitrile] | 100 to 1000 nM | < 100 nM |  |
| Cc1ccc(-c2cnc(N[C@@H]3C[C@H]4CNC[C@H]4C3)nc2-c2ccc(C#N)cc2)cc1 [Example 27, 4-(2-{[(3aR,5S,6aS)-octahydrocyclopenta[c]pyrrol-5-yl]amino}-5-(4-methylphenyl)pyrimidin-4-yl)benzonitrile] | 100 to 1000 nM | 100 to 1000 nM |  |
| Cc1ccc(-c2cc(NCC3CCNCC3)nn2-c2ccc(C#N)cc2)cc1 [Example 46, 4-[5-(4-methylphenyl)-3-(piperidin-4-ylmethylamino)pyrazol-1-yl]benzonitrile] | 100 to 1000 nM | < 100 nM |  |
| Cc1ccc(-c2cc(NC[C@H]3[C@@H]4CNC[C@@H]43)nn2-c2ccc(C#N)cc2)cc1 [Example 47, 4-[3-[[(1S,5R)-3-azabicyclo[3.1.0]hexan-6-yl]methylamino]-5-(4-methylphenyl)pyrazol-1-yl]benzonitrile] | 100 to 1000 nM | < 100 nM |  |
| COc1ccc(-c2nc3ccn(C[C@@H]4CCNC4)c3cc2-c2ccc(C#N)cc2)cc1F [Example 50, 4-{1-[((3R)pyrrolidin-3-yl)methyl]-5-(3-fluoro-4-methoxyphenyl)pyrrolo[3,2-b]pyridin-6-yl}benzenecarbonitrile, HCl salt] | < 100 nM | < 100 nM |  |
| COc1ccc(-c2nc3ccn(C[C@@H]4CCNC4)c3cc2-c2ccc(C#N)c(F)c2)cc1 [Example 52, HCl salt] |  | < 100 nM | < 100 nM |
| COc1ccc(-c2nc3ccn(C[C@H]4CCNC4)c3cc2-c2ccc(C#N)c(F)c2)cc1 [Example 54] | < 100 nM | < 100 nM |  |

More lines, main results first:

| IC50 (THP-1 (AML) cells; [1]) | IC50 (full-length human LSD1) | Compound | IC50 (THP-1 (AML) cells; THP-1, 96 h) |
| --- | --- | --- | --- |
| < 100 nM | < 100 nM | Cc1ccc(-c2nc3cnn(CC4CCNC4)c3cc2-c2ccc(C#N)cc2)cc1 (stereo not drawn) [Example 13] |  |
| 100 to 1000 nM | < 100 nM | N#Cc1ccc(-c2nc(NC[C@H]3CCNC3)ncc2-c2ccc(F)cc2)cc1 [Example 18, 4-[5-(4-fluorophenyl)-2-{[(3S)-pyrrolidin-3-ylmethyl]amino}pyrimidin-4-yl]benzonitrile] |  |
| 100 to 1000 nM | < 100 nM | N#Cc1ccc(-c2nc(NC[C@H]3CCNC3)ncc2-c2ccc(Cl)cc2)cc1 [Example 19, 4-[5-(4-chlorophenyl)-2-{[(3S)-pyrrolidin-3-ylmethyl]amino}pyrimidin-4-yl]benzonitrile] |  |
| 100 to 1000 nM | < 100 nM | Cc1ccc(-c2cnc(OC[C@@H]3CCNC3)nc2-c2ccc(C#N)cc2)cc1 [Example 20, 4-[5-(4-methylphenyl)-2-[(3R)-pyrrolidin-3-ylmethoxy]pyrimidin-4-yl]benzonitrile] |  |
| < 100 nM | < 100 nM | Cc1ccc(-c2cnc(N3C[C@H]4CNC[C@H]4C3)nc2-c2ccc(C#N)cc2)cc1 [Example 21, 4-{2-[(3aR,6aS)-octahydropyrrolo[3,4-c]pyrrol-2-yl]-5-(4-methylphenyl)pyrimidin-4-yl}benzonitrile] |  |
| < 100 nM | < 100 nM | Cc1ccc(-c2cnc(N3CCC4CNCC4C3)nc2-c2ccc(C#N)cc2)cc1 (stereo not drawn) [Example 22, 4-[5-(4-methylphenyl)-2-{octahydro-1H-pyrrolo[3,4-c]pyridin-5-yl}pyrimidin-4-yl]benzonitrile] |  |
| 100 to 1000 nM | < 100 nM | N#Cc1ccc(-c2nc(NC[C@H]3CCNC3)ncc2C#CC2CC2)cc1 [Example 26, 4-[5-(2-cyclopropylethynyl)-2-{[(3S)-pyrrolidin-3-ylmethyl]amino}pyrimidin-4-yl]benzonitrile] |  |
| < 100 nM | < 100 nM | Cc1ccc(-c2cc(NCC3CCNC3)nn2-c2ccc(C#N)cc2)cc1 (stereo not drawn) [Example 43, 4-[5-(4-methylphenyl)-3-(pyrrolidin-3-ylmethylamino)pyrazol-1-yl]benzonitrile] |  |
| 100 to 1000 nM | < 100 nM | Cc1ccc(-c2cc(NC[C@H]3CCNC3)nn2-c2ccc(C#N)cc2)cc1 [Example 44, 4-[5-(4-methylphenyl)-3-[[(3S)-pyrrolidin-3-yl]methylamino]pyrazol-1-yl]benzonitrile] |  |
| 100 to 1000 nM | < 100 nM | Cc1ccc(-c2cc(NC[C@@H]3CCNC3)nn2-c2ccc(C#N)cc2)cc1 [Example 45, 4-[5-(4-methylphenyl)-3-[[(3R)-pyrrolidin-3-yl]methylamino]pyrazol-1-yl]benzonitrile] |  |
| < 100 nM | < 100 nM | COc1ccc(-c2nc3ccn(C[C@@H]4CCNC4)c3cc2-c2ccc(C#N)cc2)cc1 [Example 49, 4-{1-[((3R)pyrrolidin-3-yl)methyl]-5-(4-methoxyphenyl)pyrrolo[3,2-b]pyridin-6-yl}benzenecarbonitrile, HCl salt] |  |
| < 100 nM | < 100 nM | COc1ccc(-c2nc3ccn(C[C@H]4CCNC4)c3cc2-c2ccc(C#N)cc2)cc1F [Example 51, 4-{1-[((3S)pyrrolidin-3-y])methyl]-5-(3-fluoro-4-methoxyphenyl)pyrrolo[3,2-b]pyridin-6-yl}benzenecarbonitrile, HCl salt] |  |
| < 100 nM | < 100 nM | COc1ccc(-c2nc3ccn(C[C@@H]4CCNC4)c3cc2-c2ccc(C#N)c(F)c2)cc1F [Example 53, 4-{1-[((3R)pyrrolidin-3-yl)methyl]-5-(3-fluoro-4-methoxyphenyl)pyrrolo[3,2-b]pyridin-6-yl}-2-fluorobenzenecarbonitrile HCl salt] |  |
